{"source": "patent US9192599B2", "about": "“Treating inflammation and inflammatory pain in mucosa using mucosal prolonged release bioadhesive therapeutic carriers” (Onxeo S.A., priority 2008, dated 2015)", "key": {"TNFα": {"system": "TNFα", "assay": "TNFα quantification by ELISA in human oral mucosa organotypic culture stimulated by substance P", "format": "cell-based", "description": "Biopsy samples of clinically healthy non keratinised human oral mucosa were obtained from patients undergoing surgery.\nSmall biopsies (explant size: 5 mm^2 surface and 3 mm thickness and about 15 to 20 mg weight) were transferred onto permeable polycarbonate membrane transwells (12 mm diameter, 12 μm pore size) in a well of a 12 well plate (as previously described Boisnic S. et al., 2003 and 2006) containing 700 μl of defined medium (DMEM, antibiotics, hormones, pituitary extract, SVF). For each donor, the gingival biopsy was cut to obtain the same weight so that to have comparison between different conditions tested. Explants were maintained at the interface between air and medium: the oral mucosa epithelium was in contact with air and the chorion was exposed to the media by diffusion through the porous polycarbonate membrane.\nCohesion between gingival fragment and insert was obtained with a polyvinylsiloxane addition type silicone elastomer seal (Coltene® president) in such a way that no gingival retraction or lateral passage of the product towards the dermis was possible. The culture was set up for 2 days in a humidified atmosphere containing 5% CO2 at 37° C.\nThe stimulation of the experimental oral mucosa inflammatory process was done by the neuropeptide substance P (SP) (Boisnic et al., 2003).\nThe neuropetide SP ([SP]=10 μM) was added (or not) to the culture medium in order to simulate the mucositis pro-inflammatory process. SP was in contact with the mucosal chorion after diffusion through the porous membrane.\nThe cell culture lasted two days (“D0” for the first day and “D1” for the second day).\nTherefore the clonidine treatment was done before and during substance P stimulation.\nRemoved D1 culture medium in each well; aliquot it in 7 samples of 100 μl and store at −80° C. for cytokines release analysis.\nAt the end of each culture all the human oral mucosa explants were weighed (cytokines release expressed as pg/mg of cultured oral mucosa explants).\nMean values and standard deviations were calculated for each parameter. The statistical significance of changes recorded in the parameters were determined with unpaired Mann-Whitney U test (p<0.05)."}, "mucositis in hamsters": {"system": "mucositis in hamsters", "conditions": "for mucositis severity, daily scores vs vehicle control (Mann-Whitney rank sum): day −1 to 20; for average weight gain, % of starting weight: days −1 to 20, topical; for animal days with mucositis score of 3 or higher / peak mean mucositis score: days −1 to 20; for peak mean mucositis score: peak on day 16, scale 0-5; for course and severity of mucositis, comparison of schedules: day −1 to 20, topical", "description": "Thirty-two (32) male Syrian Golden Hamsters were randomly assigned to four (4) equally-sized groups. […] All agents were administered topically. On study day 0, each hamster was irradiated with a single dose of 40 Gy directed to the left buccal cheek pouch. Animals were subsequently weighed and observed daily. Beginning on day 6 and continuing on alternate days for the duration of the study, images of the left cheek pouch mucosa was obtained. At the conclusion of the in-life phase of the study, the images were scored for mucositis severity using a validated scale and the number of days of ulcerative mucositis was assessed using a Chi-squared test of scores of ≧3 throughout the study. The individual daily group scores were evaluated using a rank sum test.\nMucositis was induced using a standardized acute radiation protocol. A single dose of radiation (40 Gy/dose) was administered to all animals on day 0. Radiation was generated with a 160 kilovolt potential (15-ma) source at a focal distance of 40 cm, hardened with a 0.35 mm Al filtration system. Irradiation targeted the left buccal pouch mucosa at a rate of 2.5 Gy/minute. Prior to irradiation, animals were anesthetized with an intraperitoneal injection of Ketamine (160 mg/ml) and Xylazine (8 mg/ml). The left buccal pouch was everted, fixed and isolated using a lead shield.\nFor the evaluation of mucositis, the animals were anesthetized with an Inhalation anesthetic, and the left pouch everted. Mucositis was scored visually by comparison to a validated photographic scale, ranging from 0 for normal, to 5 for severe ulceration (clinical scoring). In descriptive terms, this scale is defined in Table 2:\nA score of 1-2 is considered to represent a mild stage of the disease, whereas a score of 3-5 is considered to indicate moderate to severe mucositis. Following visual scoring, a photograph was taken of each animal's mucosa using a standardized technique. At the conclusion of the experiment, all films were developed and the photographs randomly numbered. At least two independent trained observers graded the photographs in blinded fashion using the above-described scale (blinded scoring).\nTest materials were given by topical administration directed to the left cheek pouch daily as detailed in Table 3.\nto day 20. Animals in Groups 1, 3 and 4 were dosed at 6 am, 11 am, 4 pm and 9 pm. Animals in Group 2 were dosed at 6 am.\nMucositis was evaluated clinically starting on Day 6, and continuing on alternate days until day 28."}}, "note": "Values joined by “and” are separate entries in the source; they are usually repeats but may differ in a detail not shown here. Identical values can stand only once. Like-named read-outs stand apart in the source and are kept apart here.", "data": [{"compound": "Clc1cccc(Cl)c1NC1=NCCN1", "note": "[clonidine, N-(2,6-dichlorophenyl)-4,5-dihydro-1H-imidazol-2-amine]", "values": [{"measurement": "anti-inflammatory effect on gingiva stimulated by SP", "setting": "TNFα; doses 0.009, 0.03, 0.09 and 0.3 μg/ml", "result": "No significant anti-inflammatory effect"}, {"measurement": "TNFα quantification by ELISA", "setting": "TNFα; gingiva + SP, 0.009 μg/ml clonidine", "result": "1.14 ± 0.7", "unit": "pg/mg"}, {"measurement": "TNFα quantification by ELISA", "setting": "TNFα; gingiva + SP, 0.03 μg/ml clonidine", "result": "1.02 ± 0.4", "unit": "pg/mg"}, {"measurement": "TNFα quantification by ELISA", "setting": "TNFα; gingiva + SP, 0.09 μg/ml clonidine", "result": "1.08 ± 0.29", "unit": "pg/mg"}, {"measurement": "TNFα quantification by ELISA", "setting": "TNFα; gingiva + SP, 0.3 μg/ml clonidine", "result": "0.86 ± 0.4", "unit": "pg/mg"}, {"measurement": "TNFα quantification by ELISA", "setting": "TNFα; gingiva + SP, 0.9 μg/ml clonidine", "result": "0.74 pg/mg and 0.74 ± 0.36 (* p = 0.0106) pg/mg"}, {"measurement": "TNFα quantification by ELISA", "setting": "TNFα; gingiva + SP, 3 μg/ml clonidine", "result": "0.67 pg/mg and 0.67 ± 0.27 (* p = 0.0056) pg/mg"}, {"measurement": "TNFα quantification by ELISA", "setting": "TNFα; gingiva without SP, 3 μg/ml clonidine", "result": "0.83 ± 0.40", "unit": "pg/mg"}, {"measurement": "TNFα quantification by ELISA", "setting": "TNFα; gingiva without SP, 3 μg/ml clonidine, listed as Clonidine", "result": 0.83, "unit": "pg/mg"}, {"measurement": "mucositis severity, daily scores vs vehicle control (Mann-Whitney rank sum)", "setting": "mucositis in hamsters; 12.5 μg/kg 4 times daily, days 20, 22 and 24", "result": "significantly lower mucositis scores than the vehicle controls"}, {"measurement": "mucositis severity, daily scores vs vehicle control (Mann-Whitney rank sum)", "setting": "mucositis in hamsters; 12.5 μg/kg 4 times daily, days 20, 22 and 24, listed as Clonidine", "result": "significantly reduced the severity of mucositis"}, {"measurement": "average weight gain, % of starting weight", "setting": "mucositis in hamsters; 12.5 μg/kg 4 times daily", "result": 46.1, "unit": "%"}, {"measurement": "animal days with mucositis score of 3 or higher", "setting": "mucositis in hamsters; 12.5 μg/kg 4 times daily, p=0.047 vs vehicle", "result": 26.0, "unit": "%"}, {"measurement": "peak mean mucositis score", "setting": "mucositis in hamsters; 12.5 μg/kg 4 times daily", "result": 3.0}, {"measurement": "mucositis severity, daily scores vs vehicle control (Mann-Whitney rank sum)", "setting": "mucositis in hamsters; 25 μg/kg 4 times daily, days 6 and 14", "result": "significantly lower mucositis scores than the vehicle controls"}, {"measurement": "mucositis severity, daily scores vs vehicle control (Mann-Whitney rank sum)", "setting": "mucositis in hamsters; 25 μg/kg 4 times daily, days 6 and 14, listed as Clonidine", "result": "significantly reduced the severity of mucositis"}, {"measurement": "average weight gain, % of starting weight", "setting": "mucositis in hamsters; 25 μg/kg 4 times daily", "result": 45.0, "unit": "%"}, {"measurement": "animal days with mucositis score of 3 or higher", "setting": "mucositis in hamsters; 25 μg/kg 4 times daily, p=0.125 vs vehicle", "result": 28.1, "unit": "%"}, {"measurement": "peak mean mucositis score", "setting": "mucositis in hamsters; 25 μg/kg 4 times daily", "result": 3.1}, {"measurement": "course and severity of mucositis, comparison of schedules", "setting": "mucositis in hamsters; 100 μg/kg once daily", "result": "superior to the other concentrations and schedules tested"}, {"measurement": "course and severity of mucositis, comparison of schedules", "setting": "mucositis in hamsters; 100 μg/kg once daily, listed as Clonidine", "result": "favorably altered the course and severity of mucositis"}, {"measurement": "mucositis severity, daily scores vs vehicle control (Mann-Whitney rank sum)", "setting": "mucositis in hamsters; 100 μg/kg once daily, days 16, 20 and 22", "result": "significantly different than the vehicle control group"}, {"measurement": "mucositis severity, daily scores vs vehicle control (Mann-Whitney rank sum)", "setting": "mucositis in hamsters; 100 μg/kg once daily, days 16, 20 and 22, listed as Clonidine", "result": "significantly reduced the severity of mucositis"}, {"measurement": "average weight gain, % of starting weight", "setting": "mucositis in hamsters; 100 μg/kg once daily", "result": 51.3, "unit": "%"}, {"measurement": "animal days with mucositis score of 3 or higher", "setting": "mucositis in hamsters; 100 μg/kg once daily, p=0.003 vs vehicle", "result": 21.9, "unit": "%"}, {"measurement": "peak mean mucositis score", "setting": "mucositis in hamsters; 100 μg/kg once daily", "result": 2.8}, {"measurement": "severity of mucositis based on mucositis score area under the curve", "setting": "mucositis in hamsters; all three treatment groups, p=0.0007", "result": "severity of mucositis was reduced"}, {"measurement": "adverse reaction to treatment", "setting": "mucositis in hamsters; any of the doses tested", "result": "no evidence of any significant adverse reaction"}]}, {"compound": "SP: neuropeptide substance P added to culture medium to simulate the mucositis pro-inflammatory process", "values": [{"measurement": "TNFα quantification by ELISA", "setting": "TNFα; gingiva + SP 10 μM, no clonidine (positive control)", "result": "1.7 ± 1.09 (# p = 0.0056) pg/mg"}, {"measurement": "TNFα quantification by ELISA", "setting": "TNFα; gingiva + SP 10 μM, no clonidine (positive control), listed as substance P", "result": 1.7, "unit": "pg/mg"}]}]}
